The source of these data is patent publication US20260275395A1, “ENZYMATIC CONVERSION OF D-XYLOSE INTO D-RIBOSE AND D-RIBULOSE-5-PHOSPHATE” (priority 2022, published 2026).

Series [1] relates to BpXylA (xylose isomerase). In words: Substrate specificity of BpXylA. The note with it: substrate 2 mM, standard reaction conditions (50 mM sodium phosphate pH 7.0, 1 mM Mg^2+, 50° C., 10 minutes); based on the activity for D-xylose. Type of series: biochemical, Bacteroides plebeius. How it is done:
(§1) To investigate the optimal reaction conditions for BpXylA, the effects of optimal reaction temperature, pH, and metal ions were examined. The standard reaction conditions for BpXylA were set to a reaction with 1.09 U/ml BpXylA in 50 mM sodium phosphate (pH 7.0) buffer containing 10 mM D-xylose and 1 mM Mg^2+ at 50° C. for 10 minutes. The optimal reaction conditions for BpXylA described below were all determined by experiments under the standard reaction conditions.
In order to determine whether BpXylA used in the present invention is a suitable enzyme for producing D-ribose from D-xylose, the substrate specificity of BpXylA for various aldo- and keto-sugars was examined [Table 1]. The experiment was conducted using various aldo- and keto-sugars as substrates at a concentration of 2 mM under the standard reaction conditions, and the relative activity against other substrates was shown based on the activity for D-xylose. […] Therefore, BpXylA is sufficiently applicable for producing D-ribose from D-xylose in the present invention.

Series [2] relates to BpRpiB (D-ribose-5-phosphate isomerase). Nature of the series: Substrate specificity of BpRpiB. It is filed as biochemical, Bacteroides plebeius. The note with it: substrate 2 mM, standard reaction conditions (50° C., 10 minutes). The source says:
(§2) To determine the optimal reaction conditions for BpRpiB, the optimal reaction temperature, pH, metal ion effects, and thermal stability were examined. […] The amount (mg) of BpRpiB that produces 1 μmol of D-ribulose per minute was defined as one unit.
BpRpiB used in the present invention is known to be an enzyme that converts the substrate D-ribulose-5-phosphate, which is originally a phosphorylated sugar, into D-ribose-5-phosphate. Therefore, in the present invention, in order to confirm the activity of BpRpiB for D-ribose and D-ribulose as well as D-ribulose-5-phosphate and D-ribose-5-phosphate, which are the original substrates of BpRpiB, the substrate specificity of BpRpiB for various aldo- and keto-sugars was examined [Table 2]. The experiment was performed using various aldo- and keto-sugars as substrates at a concentration of 2 mM under standard reaction conditions, and the relative activity against other substrates was expressed based on the activity against D-xylose. […] Therefore, in the present invention, in order to produce D-ribose from D-xylose, BpRpiB is sufficiently applicable as an enzyme that converts D-ribulose into D-ribose, which is the final reaction step of the multi-enzyme process.

In series [3] the target is EcPpk (polyphosphate kinase) (Escherichia coli, UniProt P0A7B1). To be noted: pre-incubation 4° C. 20 minutes; control: no metal ions added. The method, then: As a result, the highest activity was found at 50° C., as shown in [(a) of FIG. 10]. […] As a result, the highest activity was found in a sodium phosphate buffer (pH 7.0), as shown in [(b) of FIG. 10]. […] The decrease in enzyme activity was calculated by calculating the decrease in relative activity due to heat treatment, using the activity of the enzyme that was not allowed to stand as a control. […] [(d) of FIG. 10].

Series [4] addresses T1, EcAraB (L-ribulokinase) (Escherichia coli, UniProt P08204). Nature of the series: Effect of metal ions on the activity of EcAraB. Type of series: biochemical. Further details: His tag (inferred: pET21a, NotI reverse primer without stop codon, HisTrap purification) (C); T7 tag and vector leader of pET21a (own knowledge: in-frame insertion at SacI keeps the vector's N-terminal leader) (N); made in house; host or cells: E. coli BL21 (DE3). To be noted: pre-incubation 4° C. 20 minutes; control: no metal ions added. How it is done: To determine the optimal reaction conditions for EcAraB, the optimal reaction temperature, pH, metal ion effects, and thermal stability were examined. […] The amount (mg) of EcAraB that produces 1 μmol of D-ribulose-5-phosphate per minute was defined as one unit.
As a result, as shown in [(a) of FIG. 9], the highest activity was found at 50° C. In order to determine the optimal pH conditions for EcAraB, the reaction was performed while varying the pH using various buffer solutions. […] [(d) of FIG. 9].

Series [5] deals with BpXylA (xylose isomerase). In words: Effect of metal ions on the thermal stability of BpXylA. Type of series: biochemical, Bacteroides plebeius. The note with it: 1 mM metal ion; for Relative activity of BpXylA over time with metal ion: 50° C. (Mg^2+: 50° C. or higher), up to 90 minutes. How it is done:
To investigate this, the culture was performed with each metal ion corresponding to a concentration of 1 mM together with the enzymes under various temperature conditions. As a result, as shown in [FIG. 4], higher thermal stability was found when the culture was performed with metal ions than when it was performed without metal ions. […] [(b) of FIG. 4 and (c) of FIG. 4].

For series [6], the system named is BpXylA (xylose isomerase). Nature of the series: Effect of metal ions on the activity of BpXylA. Type of series: biochemical, Bacteroides plebeius. To be noted: pre-incubation 4° C. 20 minutes; control: no metal ions added. How it is done:
as §1
(§3) First, in order to determine the optimal temperature conditions for BpXylA, the reaction was performed under standard reaction conditions at various temperature conditions. […] In order to determine the optimal pH of BpXylA, the reaction was performed while varying the pH using various buffer solutions.

Series [7] deals with BpRpiB (D-ribose-5-phosphate isomerase). Nature of the series: Effect of metal ions on the activity of BpRpiB. To be noted: pre-incubation 4° C. 20 minutes; control: no metal ions added. Type of series: biochemical, Bacteroides plebeius. How it is done:
as §2
(§4) First, in order to determine the optimal temperature conditions for BpRpiB, the reaction was performed under standard reaction conditions at various temperature conditions. […] In order to investigate the optimal pH for the activity of BpRpiB, the reaction was performed by changing the pH using various buffer solutions. […] [(d) of FIG. 5].

Series [8] has as its system BpXylA (xylose isomerase). Nature of the series: Optimal reaction temperature and pH of BpXylA. It is filed as biochemical, Bacteroides plebeius. How it is done: as §1, §3
For series [9], the system named is BpXylA (xylose isomerase). Nature of the series: Thermal stability of BpXylA. Type of series: physicochemical, Bacteroides plebeius.
The target in series [10] is T1, EcAraB (L-ribulokinase). The note with it: previous study; cited from earlier work.
Series [11] concerns BpRpiB (D-ribose-5-phosphate isomerase). In words: Thermal stability of BpRpiB. Type of series: physicochemical, Bacteroides plebeius. The method, then:
as §2, §4

Series [12] concerns the target T2, AtDpe (ketose 3-epimerase) (Agrobacterium fabrum, UniProt A9CH28).
T2 sequence (A9CH28 whole entry, looked up): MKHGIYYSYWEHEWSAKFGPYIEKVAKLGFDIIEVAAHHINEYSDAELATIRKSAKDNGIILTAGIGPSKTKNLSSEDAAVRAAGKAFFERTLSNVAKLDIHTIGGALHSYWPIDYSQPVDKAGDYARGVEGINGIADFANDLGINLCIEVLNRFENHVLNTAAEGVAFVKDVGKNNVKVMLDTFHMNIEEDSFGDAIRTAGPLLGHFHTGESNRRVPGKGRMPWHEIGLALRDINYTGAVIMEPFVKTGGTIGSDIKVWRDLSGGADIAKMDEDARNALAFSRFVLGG
The note with it: 50° C. compared to 45° C.; previous study; cited from earlier work.

As to `O=C[C@@H](O)[C@@H](O)[C@H](O)[C@H](O)CO` [D-Mannose], the “Relative activity (%)” value in series [1] and in series [2] was “Not detected” throughout.
As for `O=C(CO)[C@@H](O)[C@H](O)[C@@H](O)CO` [L-Sorbose], the “Relative activity (%)” value in series [1] and in [2] was “Not detected” in each case.
For `O=C(CO)[C@H](O)[C@H](O)COP(=O)(O)O` [D-Ribulose-5-phosphate], the “Relative activity (%)” value in series [2] came to 924.4 ± 33.7%.
In the case of `[Mg+2]` [Mg^2+], the entries for the “Relative activity with metal ion added” value (in [3]; on EcAraB (L-ribulokinase) [4]; in series [6]) were 202.12±7.46%, 614.62±42.14% and 876.98±35.30%, respectively. Besides, the “Relative activity of BpXylA over time with metal ion” value in series [5] is listed as “decreased over time”. Moreover, the “Thermal stability of BpXylA with metal ion” value in series [5] (versus without metal ions) was “thermal stability increased”. In addition, the “Effect of metal ion on enzyme activity” value in series [6] is reported as “significantly increased”.
For `O=C(CO)[C@@H](O)[C@@H](O)[C@H](O)CO` [D-Tagatose], the “Relative activity (%)” value in [1] and in [2] was “Not detected” in each case.
With `O=C(CO)[C@@H](O)[C@H](O)[C@H](O)CO` [D-Fructose], the “Relative activity (%)” value in series [1] and in series [2] was “Not detected” each time.
`[Cu+2]` [Cu^2+]: in series [7], the “Effect of metal ion on enzyme activity” value was “significantly inhibited”.
Consider `O=C[C@H](O)[C@@H](O)[C@H](O)CO` [D-Xylose], for which the “Relative activity (%)” value is 100 ± 2.2% in series [1] and “Not detected” in [2].
For the molecule `O=C[C@@H](O)[C@H](O)[C@H](O)CO` [D-Arabinose], the “Relative activity (%)” value in [1] and in series [2] was “Not detected” throughout.
For the molecule “BpXylA: xylose isomerase derived from Bacteroides plebeius, SEQ ID NO: 1”, the “Optimal pH” value in [8] (sodium phosphate buffer) is recorded as 7.0. In series [8] (standard reaction conditions, various temperatures), the “Optimal temperature for enzyme activity” value worked out at 50 °C. In addition, in [9] (40° C., up to 90 minutes), the “Enzyme activity after heat treatment” value was “did not significantly decrease”. Also, the “Relative activity after heat treatment” value in series [9] (50° C. for 15 minutes, control: enzyme not allowed to stand) is given as “about 29.29±1.43%”.
On to `O=C[C@H](O)[C@H](O)[C@H](O)CO` [D-Ribose], for which the “Relative activity (%)” value is listed as 33.2 ± 1.1% in [1] and 79.1 ± 0.4% in series [2].
Regarding `[Co+2]` [Co^2+], the figures for the “Relative activity with metal ion added” value (in [3]; on EcAraB (L-ribulokinase) [4]) were 176.14±24.10% and 435.51±110.20%, respectively. In series [5], the “Relative activity of BpXylA over time with metal ion” value is “stably maintained”. The “Effect of metal ion on enzyme activity” value in [6] is given as “significantly increased”.
On to `O=C[C@H](O)[C@@H](O)[C@H](O)[C@H](O)CO` [D-Glucose], for which the “Relative activity (%)” value in series [1] and in series [2] was “Not detected” throughout.
For `O=C(CO)[C@@H](O)[C@H](O)CO` [D-Xylulose], the “Relative activity (%)” value in series [1] is 156.5 ± 2.2%; in series [2], “Not detected”. Besides, on EcAraB (L-ribulokinase) [10], the “Activity relative to the activity against D-ribulose” value was 2.44%.
Take `O=C[C@H](O)[C@H](O)[C@H](O)COP(=O)(O)O` [D-Ribose-5-phosphate]: the “Relative activity (%)” value in [2] is on record as 933.9 ± 11.7%.
`[Zn+2]` [Zn^2+]: the “Effect of metal ion on enzyme activity” value in series [7] is “significantly inhibited”.
For the molecule `O=C(CO)[C@H](O)[C@H](O)CO` [D-Ribulose], the “Relative activity (%)” value worked out at 13.9 ± 13.8% in [1] and 100 ± 4.8% in [2].
Regarding `[Mn+2]` [Mn^2+], the “Relative activity with metal ion added” value came to 161.48±5.53% in [3] and 286.47±21.62% on EcAraB (L-ribulokinase) [4]. The “Relative activity of BpXylA over time with metal ion” value in series [5] is recorded as “stably maintained”. The “Relative activity of BpXylA with metal ion” value in [5] (60° C.) was “stable”. Moreover, in series [6], the “Effect of metal ion on enzyme activity” value is reported as “significantly increased”.
Consider `O=C[C@H](O)[C@@H](O)[C@@H](O)CO` [L-Arabinose], for which the “Relative activity (%)” value in [1] and in series [2] was “Not detected” throughout.

B1: BpRpiB: D-ribose-5-phosphate isomerase derived from Bacteroides plebeius, SEQ ID NO: 5 (protein)
chain: MKTIGLASDHAGFELKQYVKKWLEAKGWEYKDFGTYTTDSCDYPDFAHPLALAVENGECYPGIAICGSGEGIGITLNKHQGIRAALCWIPEIAHLARQHNNANVLVMPGRFIDEAMADKIMTEFFTTDFEGGRHQARIDKIPVR
modifications: BpRpiB
As to B1, the “Activity after heat treatment” value in series [11] (70° C.) is “rapidly decreased”. Besides, the “Overall activity after heat treatment” value in [11] (up to 60° C.) is given as “stable”.

B2: AtDpe: ketose 3-epimerase derived from Agarobacterium tumefaciens, SEQ ID NO: 3 (protein)
chain: T2 sequence (A9CH28 whole entry, looked up)
modifications: AtDpe
With B2, the Thermal stability entry in series [12] is on record as “decreased rapidly”.
